Tested on: UM16 cell line
Test: Proteomics, protein fold change
Type: cell-based
Conditions: for Fold change: 5 μM
Text: Several proteins participating in energy metabolism were dramatically changed.

CCOC(=O)[C@@H]1CCCN(S(=O)(=O)c2ccc(S(=O)(=O)N(CC)CC)cc2)C1 [DX2-201, ethyl (R)-1-((4-(N,N-diethylsulfamoyl)phenyl)sulfonyl)piperidine-3-carboxylate]
Serine protease 23, nuclear receptor family 2 group F member 6, protein NDRG1 (proteomic results): upregulated | Glycerol kinase fold change (24 hours, top upregulated): 3 fold | dihydrolilpoyl dehudrogenase fold change (downregulated, TCA cycle enzyme): 0.684 | Fold change (protein ABTB2, 24 hours): 0.778 | Fold change (protein ALAS1, 24 hours): 1.393 | Fold change (protein ANKH, 24 hours): 0.777 | Fold change (protein ANKRD54, 24 hours): 0.799 | Fold change (protein AP1S2, 24 hours): 0.792 | Fold change (protein AP2S1, 24 hours): 0.781 | Fold change (protein APBB1IP, 24 hours): 1.458 | Fold change (protein BTBD10, 24 hours): 1.651 | Fold change (protein CCDC88C, 24 hours): 0.785 | Fold change (protein CCNT2, 24 hours): 1.65 | Fold change (protein CDC42BPA, 24 hours): 1.514 | Fold change (protein CDCA5, 24 hours): 0.761 | Fold change (protein CMTM4, 24 hours): 1.678 | Fold change (protein CYP51A1, 24 hours): 1.636 | Fold change (protein DHTKD1, 24 hours): 1.384 | Fold change (protein DLD, 24 hours): 0.684 | Fold change (protein DOLPP1, 24 hours): 0.731 | Fold change (protein DOPEY2, 24 hours): 0.797 | Fold change (protein DTNBP1, 24 hours): 0.794 | Fold change (protein FAH, 24 hours): 0.785 | Fold change (protein FAU, 24 hours): 0.742 | Fold change (protein Hist1h1d, 24 hours): 0.703 | Fold change (protein KIAA0355, 24 hours): 1.48 | Fold change (protein MED27, 24 hours): 0.79 | Fold change (protein MROH1, 24 hours): 1.386 | Fold change (protein NAA35, 24 hours): 1.377 | Fold change (protein NDRG1, 24 hours): 1.55 | Fold change (protein NOL8, 24 hours): 0.771 | Fold change (protein NR2F6, 24 hours): 1.842 | Fold change (protein NRGN, 24 hours): 0.795 | Fold change (protein OGFOD2, 24 hours): 0.754 | Fold change (protein OSTC, 24 hours): 1.418 | Fold change (protein PDCL, 24 hours): 0.752 | Fold change (protein PLP2, 24 hours): 0.763 | Fold change (protein PRSS23, 24 hours): 1.844 | Fold change (protein RCCD1, 24 hours): 1.443 | Fold change (protein RDH13, 24 hours): 1.429 | Fold change (protein RRM2B, 24 hours): 1.395 | Fold change (protein RUSC1, 24 hours): 0.771 | Fold change (protein SCAMP2, 24 hours): 0.729 | Fold change (protein SLC25A15, 24 hours): 0.796 | Fold change (protein TADA3, 24 hours): 1.45 | Fold change (protein TCEAL1, 24 hours): 1.382 | Fold change (protein TMEM55B, 24 hours): 1.664 | Fold change (protein UQCC3, 24 hours): 1.635 | Fold change (protein ZBTB21, 24 hours): 0.709 | Fold change (protein gk, 24 hours): 3.009 | Fold change (protein krt17, 24 hours): 1.386 | Fold change (protein pop7, 24 hours): 0.736 | Fold change (protein scaf8, 24 hours): 1.508
